Read-outs that look alike come from different tables or passages of the source. One block for each compound: values may come before it.
Tests used:
[1] = tested on: Pseudomonas putida ATCC 11172; assay: Biodegradation of solvents (consumed as substrate); assay type: cell-based; conditions: Table 1; Yes/No
Experimental: (§1) Pseudomonas putida available under ATCC accession number 11172, an organism known to degrade phenol by the meta pathway (Bayly et al.^17) was used in this Example. The organism was maintained on medium previously described (Fujita et al.^11), containing 5 g/L glucose and 100 mg/L phenol as carbon sources. EDTA was also added to the medium at a 1:1 molar ratio with ferric chloride to prevent the formation of a precipitate. Cultures were grown in 125 mL Erlenmeyer flasks containing 50 mL of maintenance medium in a shaker bath at 30° C. The flasks were allowed to incubate for 36 hours prior to their use as inoculum for fermentation. A total of 160 mL of the cultured medium was centrifuged, the supernatant discarded and the cell fraction resuspended in the remaining 40 mL of medium. The 40 mL aliquot was then used to inoculate the fermentor for the batch and fed batch experiments.
The biodegradability of the solvents was assessed as part of the solvent selection process. 5 mL of each solvent was added to 125 mL Erlenmeyer flasks containing 50 mL of seeded maintenance medium containing 250 mg/L phenol but no glucose. Solvent was not added to one flask, which was used as a control. In addition, 5 mL of corn oil was added to one flask, to serve as a positive control. Flasks were placed on the shaker bath as above for 7 days. The cell density in each flask was measured every 24 hours. The net change in cell density was then compared to the change in cell density seen in the control and the positive control.

[2] = Determination of partition coefficients of phenol between solvent and medium buffer; assay type: physicochemical
Experimental: A stock solution of medium buffer containing 5 g/L of phenol was prepared, and 5 mL samples of the medium buffer were then contacted with 5 mL of solvent using the Mixxor™ contacting system. The contacted samples were then centrifuged, and the organic phase was aspirated and discarded. […] A red colour was developed in the samples, and the absorbance of the solution was measured relative to a blank using a Bausch and Lomb Spectronic 2000™ spectrophotometer. The partition coefficient for phenol in each organic-aqueous system was then be determined by mass balance. Any solvents that formed emulsions with the aqueous phase were eliminated from the solvent screening process, due to the difficulties associated with calculating partition coefficients for these systems.

Pseudomonas putida = conditions: cited from earlier work
[3] = tested on: Pseudomonas putida ATCC 11172
Experimental: as §1
The fermentor was prepared as above, but with a second glass sparger added to improve aeration. A propeller was added to the stir shaft of the fermentation vessel, in an attempt to reduce foaming. The fermentation was allowed to progress normally, but when the phenol concentration in the organic phase reached 2 g/L, 250 ml of the organic phase was removed, and spiked with approximately 9 g of phenol. The organic sample was then returned to the reactor, bringing the overall concentration of phenol in the organic phase back to 20 g/L. This was done twice, at 72 hours and at 120 hours. Nutrient spikes (the standard carbon-free medium formulation dissolved in 50 mL of water, instead of 1 L) were also added at 96 hours and at 132 hours, to avoid nutrient depletion in the aqueous phase.
Samples were taken from the organic and aqueous phases every twelve hours throughout the fermentations. Samples were centrifuged prior to analysis to separate the cell fraction, aqueous phase and organic layer. Phenol concentrations in the aqueous phase were assayed using the 4-aminoantipyrine method as described above. The organic samples were contacted with medium buffer using the Mixxor™ contacting system. The resulting mixture was then centrifuged, and the organic phase aspirated off. Phenol levels in the buffer were then determined as above, and the experimentally determined partition coefficient was used to calculate the concentration of phenol present in the organic phase. Cell density was assessed as described above. Consumption of base was also monitored.

[4] = Experimental: (§2) Fermentation was carried out in a 2 L New Brunswick Scientific BioFlo reactor modified for aeration with a fritted glass tube. The fermentor was operated at 30° C., agitated at 200 rpm and aerated at 0.25 vvm, based on the aqueous phase volume. The pH was controlled at 6.8 using 2N KOH. The fermentor was heat sterilized with 1 L of medium (containing no carbon source) already in place. The sterilized medium was then inoculated, and 500 mL of the organic solvent, loaded with 4 g of phenol, was added, as depicted in the schematic diagram shown in FIG. 1. A control fermentor was also prepared in the same manner, but with a cell free aqueous phase, to test for possible volatilization of phenol due to air stripping.
The pH was controlled at 6.8 using 2N KOH.

[5] = tested on: Pseudomonas putida ATCC 11172; remark: listed apart in the source
Experimental: The microorganism used for these experiments was Pseudomonas putida available under ATCC accession number 11172. The organism was maintained in liquid and solid culture, transferred weekly. The maintenance medium formulation used was as previously described (Fujita et al.^11), with 5 g/L glucose and 100 mg/L phenol provided as carbon sources. Cultures were grown in 125 mL flasks containing 50 mL of medium in a shaker bath at 30° C. for 36 hours prior to inoculation of the fermentor. A total of 160 mL of inoculum from 4 flasks was concentrated by centrifugation, the supernatant decanted and the cell fraction resuspended in the remaining 40 mL of medium to prepare the final inoculum.
as §2
Cell density was estimated by measuring the optical density of samples taken from the aqueous phase at 650 nm. Phenol concentrations in the aqueous phase were estimated using the 4-aminoantipyrine method (Der Yang et al.^12) and a Bausch and Lomb Spectronic 2000 spectrophotometer. The samples were centrifuged prior to analysis in order to remove the cell fraction. The concentration of phenol in the organic phase was measured by contacting a sample taken from the organic phase with medium buffer using a Mixxora contacting system. The resulting mixture was centrifuged, the organic phase aspirated, and the buffer analyzed using the 4-aminoantipyrine method, as mentioned above. The amount of phenol present in the organic phase was then calculated by mass balance using an […] partition coefficient.

[6] = tested on: Pseudomonas putida ATCC 11172; remark: listed apart in the source
Experimental: To allow for complete biodegradation of the substrate, the carbon-free medium formulation was doubled in concentration, in order to provide adequate nutrients for the fermentation. The fermentor was initially aerated to 0.25 vvm and agitated at 200 rpm, but during the fermentation aeration was increased to 0.5 vvm, and agitation to 250 rpm, to increase the mass transfer of oxygen to the cells. A dissolved oxygen electrode was used to monitor the level of oxygen in the aqueous phase. The pH of the system was controlled at 6.8 using 1N KOH.
(§3) Samples were taken from the organic and aqueous phases every twelve hours throughout the fermentations. Samples were centrifuged prior to analysis to separate the cell fraction, aqueous phase and organic layer. […] The organic samples were contacted with medium buffer using the Mixxor™ contacting system. The resulting mixture was then centrifuged, and the organic phase aspirated off. Phenol levels in the buffer were then determined as above, and the experimentally determined partition coefficient was used to calculate the concentration of phenol present in the organic phase. Cell density was assessed as described above. Consumption of base was also monitored.

[7] = tested on: Pseudomonas putida ATCC 11172; remark: listed apart in the source
Experimental: as §3

[8] = 28 g fed batch, initial 10 g of phenol

SMILES: CCCCCCCCCCO [1-decanol]
- Consumed as Substrate [1]: Yes

SMILES: CCCCCCCCCO [1-nonanol]
- Consumed as Substrate [1]: Yes

- Partition Coefficient [2]: 20.8
SMILES: CCCCCCCCCCCO [1-undecanol]
- Consumed as Substrate [1]: Yes

- Partition Coefficient [2]: 22.6
SMILES: CCCCCCCCC(C)O (centres unmarked) [2-decanol]
- Consumed as Substrate [1]: No

SMILES: CCCCCCCCC(C)=O [2-decanone]
- Consumed as Substrate [1]: No

- Partition Coefficient [2]: 28.3
SMILES: CCCCCCCC(C)O (centres unmarked) [2-nonanol]
- Consumed as Substrate [1]: No

SMILES: CCCCCCCCCC(C)=O [2-undecanone]
- Consumed as Substrate [1]: No

SMILES: Oc1ccccc1 [phenol]
- typical yield coefficient on phenol (Pseudomonas putida; Hill et al., g cells/g phenol): 0.52 ± 0.08 g/g
- yield coefficient (Pseudomonas putida; Hill et al., printed without unit in Example 1): 0.52+/-0.08
- typical inhibitory value of phenol (Pseudomonas putida; Kotturi et al.): 500 mg/L
- volumetric phenol consumption rate (Pseudomonas putida; highest literature value, batch system, Fujita et al.): 37.5 mg/L-h
- yield coefficient ([3]; 28 g fed batch system, cells in aqueous phase only): 0.12 g/g
- exponential growth phase [3, 8]: 48 h
- lag phase [3, 8]: 24 h
- lag phase of cell growth for the spikes of phenol ([3]; fed batch mode): eliminates the lag phase
- time to degrade 28 g of phenol ([3]; fed batch system): about 165 hours
- volumetric consumption rate ([3]; fed batch system): 175 mg/L-h
- time to consumption of the last 10 g of phenol to exhaustion ([3]; fed batch, time from start of fermentation): under 168 hours
- loss of phenol to volatilization ([4]; cell free fermentor, 48 hours, Example 1): no loss of phenol to volatilization
- loss of phenol due to air stripping ([4]; control (cell-free) fermentor, Example 2): no phenol was lost due to air stripping
- initial concentration of phenol in the aqueous phase ([5]; 4 g phenol in 500 mL 2-undecanone, 1 L aqueous): approximately 168 mg/L
- time to consumption of phenol to exhaustion ([5]; 4 g phenol, 2-undecanone, batch): over 48 hours
- initial lag phase ([5]; 4 g phenol, batch): 12 h
- volumetric phenol consumption rate ([5]; based on aqueous phase volume, 4 g phenol, batch): approximately 80 mg/L-h
- yield coefficient ([5]; cells in aqueous phase only, 4 g phenol): approximately 0.21 g cells produced/g phenol consumed
- yield coefficient ([6]; 10 g batch system, cells in aqueous phase only): 0.15 g/g
- initial concentration of phenol in the aqueous phase ([6]; 10 g phenol in organic phase): approximately 420 mg/L
- lag phase ([6]; 10 g phenol, batch): about 24 hours
- volumetric phenol consumption rate ([6]; the batch system, based on aqueous phase volume): approximately 135 mg/L-h
- yield coefficient ([7]; 4 g phenol batch, cells in aqueous phase only): 0.20 g cells/g phenol
- initial concentration of phenol in the aqueous phase ([7]; 4 g phenol in organic phase): 168 mg/L
- initial lag phase ([7]; 4 g phenol, batch): 12 h

From patent publication US6284523A, “Process for biodegradation of a xenobiotic” (priority 1998, dated 2001)
